# System: mouse T lymphocytes stimulated with the combination of ionomycin plus PMA
# Assay: T-cell proliferation assay (ionomycin plus PMA induced T-cell stimulation, tritiated thymidine uptake)
# Type: cell-based
# Conditions: for immunosuppressive activity, inhibition of T-cell activation: qualitative statement
# From the text: The principle of this assay is to measure the proliferation of mouse T lymphocytes stimulated with the combination of ionomycin plus PMA. A positive sample in this assay will inhibit T-cell proliferation, as indicated by reduced tritiated thymidine uptake.
# Spleens from C57B1/6 mice were taken under sterile conditions and gently dissociated in ice-cold RPMI 1640 culture medium (GIBCO, Grand Island, N.Y.) supplemented with 10% heat-inactivated fetal calf serum (GIBCO). Cells were pelleted by centrifugation at 1500 rpm for 8 minutes. Contaminating red cells were removed by treating the pellet with ammonium chloride lysing buffer (GIBCO) for 2 minutes at 4°C. Cold medium was added and cells were again centrifuged at 1500 rpm for 8 minutes. T lymphocytes were then isolated by separation of the cell suspension on nylon wool columns as follows: Nylon wool columns were prepared by packing approximately 4 grams of washed and dried nylon wool into 20 ml plastic syringes. The columns were sterilized by autoclaving at 250°F for 30 minutes. Nylon wool columns were wetted with warm (37°C) culture medium and rinsed with the same medium. Washed spleen cells resuspended in warm medium were slowly applied to the nylon wool. The columns were then incubated in an upright position at 37°C for 1 hour. Non-adherent T lymphocytes were eluted from the columns with warm culture medium and the cell suspensions were spun as above.
# Purified T lymphocytes were resuspended at 2.5 x 10⁵ cells/ml in complete culture medium composed of RPMI 1640 medium with 10% heat-inactivated fetal calf serum, 100 mM glutamine, 1 mM sodium pyruvate, 2 x 10⁻⁵ M 2-mercaptoethanol and 50 µg/ml gentamycin. Ionomycin was added at 250 ng/ml and PMA at 10 ng/ml. The cell suspension was immediately distributed into 96 well flat-bottom microculture plates (Costar) at 200 µl/well. […] L-679,934 was used as a standard. The culture plates were then incubated at 37°C in a humidified atmosphere of 5% CO₂-95% air for 44 hours. The proliferation of T lymphocytes was assessed by measurement of tritiated thymidine incorporation. After 44 hours of culturing, the cells were pulse-labelled with 2 µCi/well of tritiated thymidine (NEN, Cambridge, MA). After another 4 hours of incubation, cultures were harvested on glass fiber filters using a multiple sample harvester. Radioactivity of filter discs corresponding to individual wells was measured by standard liquid scintillation counting methods (Betacounter). Mean counts per minute of replicate wells were calculated and the results expressed as percent inhibition of tritiated thymidine uptake (proliferation) as follows: [formula]
# Purified T lymphocytes were resuspended at 2.5 x 10⁵ cells/ml in complete culture medium composed of RPMI 1640 medium with 10% heat-inactivated fetal calf serum, 100 mM glutamine, 1 mM sodium pyruvate, 2 x 10⁻⁵ M 2-mercaptoethanol and 50 µg/ml gentamycin. Ionomycin was added at 250 ng/ml and PMA at 10 ng/ml. The cell suspension was immediately distributed into 96 well flat-bottom microculture plates (Costar) at 200 µl/well. […] L-679,934 was used as a standard. The culture plates were then incubated at 37°C in a humidified atmosphere of 5% CO₂-95% air for 44 hours. The proliferation of T lymphocytes was assessed by measurement of tritiated thymidine incorporation. After 44 hours of culturing, the cells were pulse-labelled with 2 µCi/well of tritiated thymidine (NEN, Cambridge, MA). After another 4 hours of incubation, cultures were harvested on glass fiber filters using a multiple sample harvester.
SMILES,"inhibition at 0.01 µg/mL (Mus musculus, T-lymphocyte, 10 ng/ml, ³H-thymidine pulse 4 hours, harvest at 48 hours) [%]","% Inhibition (0.6 ng/ml, ³H-thymidine pulse 4 hours, harvest at 48 hours) [%]","% Inhibition (0.9 ng/ml, ³H-thymidine pulse 4 hours, harvest at 48 hours) [%]","% Inhibition (1.3 ng/ml, ³H-thymidine pulse 4 hours, harvest at 48 hours) [%]","% Inhibition (1.9 ng/ml, ³H-thymidine pulse 4 hours, harvest at 48 hours) [%]","% Inhibition (2.9 ng/ml, ³H-thymidine pulse 4 hours, harvest at 48 hours) [%]","% Inhibition (4.4 ng/ml, ³H-thymidine pulse 4 hours, harvest at 48 hours) [%]","% Inhibition (6.6 ng/ml, ³H-thymidine pulse 4 hours, harvest at 48 hours) [%]","% Inhibition (10 ng/ml, ³H-thymidine pulse 4 hours, harvest at 48 hours) [%]","immunosuppressive activity, inhibition of T-cell activation","% Inhibition (0.29 ng/ml, ³H-thymidine pulse 4 hours, harvest at 48 hours) [%]","% Inhibition (0.44 ng/ml, ³H-thymidine pulse 4 hours, harvest at 48 hours) [%]","% Inhibition (0.66 ng/ml, ³H-thymidine pulse 4 hours, harvest at 48 hours) [%]","% Inhibition (0.99 ng/ml, ³H-thymidine pulse 4 hours, harvest at 48 hours) [%]","% Inhibition (1.5 ng/ml, ³H-thymidine pulse 4 hours, harvest at 48 hours) [%]","% Inhibition (2.2 ng/ml, ³H-thymidine pulse 4 hours, harvest at 48 hours) [%]","% Inhibition (3.3 ng/ml, ³H-thymidine pulse 4 hours, harvest at 48 hours) [%]","% Inhibition (5 ng/ml, ³H-thymidine pulse 4 hours, harvest at 48 hours) [%]"
"C=CC[C@@H]1/C=C(\C)C[C@H](C)C[C@H](OC)[C@H]2O[C@@](O)(C(=O)C(=O)N3CCCC[C@H]3C(=O)O[C@H](/C(C)=C/[C@@H]3CC[C@@H](O)[C@H](OC)C3)[C@H](C)[C@@H](O)CC1=O)[C@H](C)C[C@@H]2OC [L-679,934, reference compound]",99,–,–,–,–,–,–,–,–,–,–,–,–,–,–,–,–,–
"CC[C@@H]1/C=C(\C)C[C@H](C)C[C@H](OC)[C@H]2O[C@@](O)(C(=O)C(=O)N3CCCC[C@H]3C(=O)O[C@H](/C(C)=C/[C@@H]3CC[C@@H](O)[C@H](O)C3)[C@H](C)[C@@H](O)CC1=O)[C@H](C)C[C@@H]2OC [demethimmunomycin, 31-desmethoxy-31-hydroxy-L-683,590]",–,0,9.0,38.2,72.1,86.3,91.9,97.9,98.6,positive inhibition of T-cell activation,–,–,–,–,–,–,–,–
"C=CC[C@@H]1/C=C(\C)C[C@H](C)C[C@H](OC)[C@H]2O[C@@](O)(C(=O)C(=O)N3CCCC[C@H]3C(=O)O[C@H](/C(C)=C/[C@@H]3CC[C@@H](O)[C@H](O)C3)[C@H](C)[C@@H](O)CC1=O)[C@H](C)C[C@@H]2OC [demethomycin, 31-desmethoxy-31-hydroxy-L-679,934]",–,–,–,–,–,–,–,–,–,positive inhibition of T-cell activation,0,0,36.8,67.1,80.5,92.9,97.2,98.1

# Reference: patent EP0353827A2, “New immunosuppressant-producing culture” (MERCK & CO. INC., priority 1988, dated 1990)
